# Source: patent US20160152704A1, “CADHERIN 15 AGONISTS” (THE UNIVERSITY OF BIRMINGHAM, priority 2013, published 2016)
# Like-named read-outs stand apart in the source and are kept apart here.
# Tests used:
# [1] = system: T cells (PBL) on TNF-α and IFN-α stimulated endothelial cells (EC); format: cell-based; conditions: FIG. 1
# Description: (§1) We measured the transmigration of T cells (PBL) after 6 minutes incubation at 37° C. on TNF-α and IFN-α stimulated endothelial cells (EC) using phase contrast microscopy. Cultured ECs were stimulated by cytokines for 24 hours. Subsequently, peripheral blood lymphocytes (PBL) were purified from the blood of healthy donors. PEPITEM was added to the PBL and these were incubated on the endothelial cells for 6 minutes. Non-adherent PBLs were removed by washing with cell free buffer. Video-microscope images of adherent cells were made from at least 5 fields of view for each EC monolayer. Adherent lymphocytes were either, i) phase bright (PB) and adherent to the apical surface of the endothelium, or ii) phase dark (PD) and migrated through the EC monolayer. The percentage of migrated cells was calculated by dividing the number of migrated cells by the total number of adherent lymphocytes (PB+PD) and multiplying by 100. To determine whether PEPITEM targets T-cells or endothelial cells, we pre-treated T-cells, endothelial cells or both T cells and endothelial cells with PEPITEM.
# [2] = system: T cells (PBL) on HUVEC where CDH15 or THBS1 were knock-down; experiment: T cell transmigration assay using endothelial cells with siRNA knock-down of CDH15 or THBS1; format: cell-based, human; conditions: FIG. 4
# Description: as §1
# HUVEC were plated in a 12 well plate (87500 cells per well) for 24 hours or until about 80% confluence. The relevant siRNA were added at a final concentration of 50 nM to 83.75 μl or 82.5 μl if duplex in Optimem media (Life Technologies Invitrogen Compounds). […]
# CDH15-FC protein = biological target: T1, CDH15-FC protein (Homo sapiens, UniProt P55291); experiment: Surface plasmon resonance (Biocore 3000), PEPITEM perfused over immobilised CDH15-FC; format: binding; conditions: PEPITEM perfused at increasing concentration; FIG. 5
# T1 construct: Fc
# Source text: Gold-coated chips were used to analyse the interaction of CDH15 with PEPITEM in the Biocore 3000 instrument. CDH15-FC protein was immobilised on a Biocore chip. PEPITEM was perfused through the Biocore cell at increasing concentration. […] This provides further evidence that cadherin-15 is the PEPITEM receptor.
# T1 sequence (P55291 with tags, fused parts or gaps limits assumed): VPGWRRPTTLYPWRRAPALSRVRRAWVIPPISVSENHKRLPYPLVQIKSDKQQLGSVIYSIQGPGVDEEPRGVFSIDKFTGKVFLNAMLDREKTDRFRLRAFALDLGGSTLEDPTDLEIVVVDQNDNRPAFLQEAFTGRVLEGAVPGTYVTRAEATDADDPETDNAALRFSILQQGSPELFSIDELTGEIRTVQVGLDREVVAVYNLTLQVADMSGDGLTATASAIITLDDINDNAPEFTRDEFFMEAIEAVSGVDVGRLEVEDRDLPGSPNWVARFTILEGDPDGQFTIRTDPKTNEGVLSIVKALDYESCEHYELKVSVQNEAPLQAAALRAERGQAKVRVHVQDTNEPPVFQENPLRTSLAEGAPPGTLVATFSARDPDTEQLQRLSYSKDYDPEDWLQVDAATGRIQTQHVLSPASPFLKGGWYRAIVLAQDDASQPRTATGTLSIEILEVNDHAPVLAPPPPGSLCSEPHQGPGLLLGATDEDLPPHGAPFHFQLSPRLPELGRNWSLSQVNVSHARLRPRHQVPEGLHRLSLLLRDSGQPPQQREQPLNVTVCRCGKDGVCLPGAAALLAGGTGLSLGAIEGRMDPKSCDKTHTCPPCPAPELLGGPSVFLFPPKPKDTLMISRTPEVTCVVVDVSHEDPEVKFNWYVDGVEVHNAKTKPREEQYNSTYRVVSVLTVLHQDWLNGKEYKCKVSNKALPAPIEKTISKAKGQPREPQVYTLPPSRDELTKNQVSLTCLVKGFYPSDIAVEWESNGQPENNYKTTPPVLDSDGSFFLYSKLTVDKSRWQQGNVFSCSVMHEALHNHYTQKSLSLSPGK
substance,measurement,setting,value
PEPITEM (SVTEQGAELSNEER; listed as Homo sapiens),inhibition of T cell transmigration,[1]; T-cells alone pre-treated with PEPITEM,ineffective at inhibiting transmigration
same,inhibition of T cell transmigration,[1]; endothelial cells pre-treated with PEPITEM,transmigration is successfully inhibited
same,inhibitory effect on T cell transmigration,[2]; endothelial cells with CDH15 (cadherin-15) knockdown,released T-cells from the inhibitory effects
same,effect on T-cell trafficking,"[2]; endothelial cells with THBS1 (thrombospondin-1) knockdown, presence of PEPITEM",no significant effect
same,binding to CDH15 protein (changes in SPR),CDH15-FC protein,able to bind to the CDH15 protein
